This is an account of results in ChEMBL document CHEMBL5550158, “Novel 4-triazole phenyl amide (4-TPA) molecules: Potent promoters of α-synuclein fibril disassembly” (Eur J Med Chem, 2024).

Series [1] relates to SH-SY5Y. As to the kind of experiment: Cytotoxicity against PFF-induced human SH-SY5Y cells assessed as increase in LDH release incubated for 24 hrs by fluorescence based analysis. The class given is functional.
The subject of series [2] is SH-SY5Y. As to the kind of experiment: Neuroprotective activity against PFF-induced human SH-SY5Y cells assessed as decrease in autophagosome level measured for 6 hrs by MDC fluorescence assay. The class given is functional, cell-based.
Series [3] can be described thus: Ratio of drug concentration in ICR mouse brain to plasma at 10 mg/kg, iv by LC-MS/MS analysis. The class given is ADME, organism-based. The conditions noted are these: read-out: BPR.
The nature of series [4]: AUC (0 to infinity) in ICR mouse at 10 mg/kg, ip measured upto 7 hrs by HPLC analysis. The series is classed as ADME, organism-based. The conditions noted are these: in vivo.
Series [5] has as its system SH-SY5Y. As to the kind of experiment: Neuroprotective activity against PFF-induced human SH-SY5Y cells assessed as diffusion of Cy5-PFF and lysosome into cytoplasm measured for 12 hrs by olympus confocal microscopic analysis. The class given is functional, cell-based.
The nature of series [6]: AUC (0 to infinity) in ICR mouse at 10 mg/kg, iv measured upto 7 hrs by HPLC analysis. The series is classed as ADME, organism-based. The conditions noted are these: in vivo.
In series [7] the test system is SH-SY5Y. Briefly: Induction of ROS level in PFF-induced human SH-SY5Y cells measured for 12 hrs by DCFH-DA staining based analysis. The class given is functional, cell-based.
Series [8] can be described thus: Bioavailability in ICR mouse at 10 mg/kg, ip or 10 mg/kg, iv measured upto 7 hrs by HPLC analysis. The class given is ADME, organism-based. Conditions: in vivo.
Series [9] can be described thus: Drug concentration in ICR mouse plasma at 10 mg/kg, iv by LC-MS/MS analysis. The class given is ADME, organism-based. Conditions: in vivo.
Series [10] in a line: Clearance in ICR mouse plasma at 10 mg/kg, ip measured upto 7 hrs by HPLC analysis. The series is classed as ADME, organism-based. Conditions: in vivo.
A short description of series [11]: Half life in ICR mouse at 10 mg/kg, iv measured upto 7 hrs by HPLC analysis. Conditions: in vivo. The series is classed as ADME, organism-based.
Series [12] in a line: Drug concentration in ICR mouse brain at 10 mg/kg, iv by LC-MS/MS analysis. The class given is ADME, organism-based. The conditions noted are these: in vivo.
Series [13] can be described thus: Tmax in ICR mouse at 10 mg/kg, ip measured upto 7 hrs by HPLC analysis. The series is classed as ADME, organism-based. The conditions noted are these: in vivo.
Series [14] is described as follows: Clearance in ICR mouse plasma at 10 mg/kg, iv measured upto 7 hrs by HPLC analysis. The series is classed as ADME, organism-based.
Series [15] can be described thus: Half life in ICR mouse at 10 mg/kg, ip measured upto 7 hrs by HPLC analysis. The conditions noted are these: in vivo. The class given is ADME, organism-based.

Molecules are shown by their SMILES. Calls of active or inactive are those of the source.

With `COc1ccc(-n2cc(-c3ccc(NC(=O)c4cc(Br)cc(OC)c4)cc3)nn2)cc1`, in the series with SH-SY5Y [1], the Activity is on record as around 30%. Moreover, the outcome in the series on SH-SY5Y [2] was inactive.

For `COc1cc([N+](=O)[O-])ccc1-n1cc(-c2ccc(NC(=O)c3ccc(NC(C)=O)cc3)cc2)nn1`, the Kp in [3] worked out at 0.1. Also, in series [4], the AUC (usually the area under the concentration-time curve, a measure of exposure) came out at 1793.287 mg·min/L. Besides, the outcome in the series with SH-SY5Y [5] and in the series with SH-SY5Y [2] was Active. Moreover, the Activity in the series on SH-SY5Y [1] is around 30%. Moreover, the AUC(0-inf) (in general, total exposure, with the tail of the curve extrapolated) in [6] was 41.3 µg·h/mL. In addition, the outcome with SH-SY5Y [7] was inactive. The bioavailability – broadly, the share of a dose that reaches the circulation, judged against a reference dose that is usually intravenous – in [8] amounted to 72.4%. This compound displayed a Cp in series [9] of 17.18 µg/mL. The same compound came in with a CL in series [10] of 0.12 L/h/kg. Further, the half-life (in general, the time needed for the level to fall by half in the phase considered) in series [11] came to 48 min; in series [15] it was 69 min. The compound also displayed a Ct in series [12] of 1.76 µg/mL. The Tmax – broadly, the time at which the peak concentration occurs – in [13] is 30 min. In series [14], the clearance (usually a measure of how efficiently the substance is removed, as volume per time) turned out to be 0.24 L/h/kg.
